Measured values reported in patent US20250361240A1, “PYRANOPYRIDINE COMPOUND, PROCESS FOR PREPARING THE SAME, PHARMACEUTICAL COMPOSITION AND USE THEREOF” (Zhejiang Yangli Pharmaceutical Technology Co., Ltd., priority 2024, published 2025).

Columns and labels:
[1] = test system: cortisol levels; assay: Pharmacodynamic test in cynomolgus monkeys with ACTH stimulation: cortisol in plasma; type: in vivo, cynomolgus monkeys (Macaca fascicularis)
Excerpt: Adult cynomolgus monkeys (Macaca fascicularis) with suitable body weight and age were selected. 1 male and 1 female cynomolgus monkeys were used for experiment. The adaptation period was 1 week. On the day of the experiment, monkeys were individually housed in stainless steel mesh cages for testing.
Oral treatment and ACTH working solution (working solution diluted to the desired concentration in PBS sterile solution by ultrapure water filtration through a 0.22 μm filter using Tetracosactrin (HY-P0060, MCE)) were administered as follows: • T=0, 2 monkeys in each group were orally administered 0.5 mg/kg (compound was suspended in 5% aqueous sodium hydroxymethylcellulose solution as vehicle) in a fixed volume of 2 mL/kg; • T=+1 hour (i.e., 1 hour after administration), 14.5 μg/kg of the aforementioned ACTH working solution was injected intramuscularly.
Sampling test: Blood samples (collected in EDTA anticoagulant tubes) were collected before oral administration (Pre-dose) and 0.5 h, 1 h, 2 h, 4 h, 6 h and 12 h after administration for cortisol concentration measurement in plasma. The blood was centrifuged at 10000 rpm for 15 minutes at 4° C., followed by separation of the plasma and uniform storage at −80° C. for further analysis using an Roche biochemical analyzer to detect aldosterone and cortisol in plasma, and a portion of the plasma (0.5 h, 1 h, 2 h, 4 h, 6 h, and 12 h after administration, and an additional blood collection after 24 h) was taken simultaneously to determine the pharmacokinetic parameters by LC/MS.
The above experiment was repeated except that: T=0, two monkeys in each group were orally administered at a dose of 0.05 mg/kg (compound was suspended in 5% aqueous sodium hydroxymethylcellulose as vehicle) in a fixed volume of 2 mL/kg.

[2] = target: human CYP11B1 (Homo sapiens (Human), UniProt P15538); assay: Inhibitory activity against hCYP11B1 in G-402 CYP11B1 high expression stable transformants (cortisol HTRF); type: cell-based; conditions: G-402 CYP11B1 cells, 0.2 μM 11-deoxycortisol, 16 hours; read-out: hCYP11B1 Abs IC50
human CYP11B1, sequence (P15538 25-503): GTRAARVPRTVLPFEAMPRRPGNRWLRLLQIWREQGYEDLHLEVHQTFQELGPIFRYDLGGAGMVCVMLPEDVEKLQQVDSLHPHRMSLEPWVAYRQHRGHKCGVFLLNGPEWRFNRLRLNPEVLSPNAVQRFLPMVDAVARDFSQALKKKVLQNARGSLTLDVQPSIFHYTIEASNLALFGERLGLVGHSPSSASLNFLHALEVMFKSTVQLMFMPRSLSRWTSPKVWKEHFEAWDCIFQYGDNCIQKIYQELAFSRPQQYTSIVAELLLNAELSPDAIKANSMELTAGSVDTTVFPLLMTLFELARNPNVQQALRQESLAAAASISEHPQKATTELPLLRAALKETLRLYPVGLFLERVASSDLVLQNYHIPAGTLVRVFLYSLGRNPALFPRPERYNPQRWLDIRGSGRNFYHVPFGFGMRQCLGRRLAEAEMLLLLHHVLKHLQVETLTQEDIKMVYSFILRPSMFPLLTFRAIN
Procedure: 1. Experimental System: G-402 CYP11B2 or CYP11B1 High Expression Stable Transformants
The above-mentioned high-expression stable transformants were constructed based on human […] cell line G-402. The artificial lentiviruses were introduced into human CYP11B2 (NM_000498.3) and CYP11B1 (NM_000497.4), respectively.
Maintenance medium: McCoy's 5A (modified, #16600082, GIBCO)+10% FBS (GIBCO)+1 μg/mL puromycin (A1113803, GIBCO).
Resuscitation and seeding medium: McCoy's 5A (modified, #16600082, GIBCO)+10% FBS (GIBCO).
Reaction medium: DMEM/F12 (#11320033, GIBCO)+2.5% activated charcoal filtered FBS (S11695, R & D).
Seeding: Cells were cultured to a suitable state after resuscitation with maintenance medium, and 96-well flat plates were seeded with seeding medium according to 1×10^4/100 μL/well (unified cell volume).
Changing solution: The supernatant was aspirated and discarded after seeding overnight (>12 hours) and adherence. 100-150 μL/well serum-free medium was added, and after being aspirated. After aspiration, 50 μL/well reaction medium was added for later use.
Formulation: Compound was diluted with reaction medium containing 0.4 μM substrate (final experimental concentration is 0.2 μM):
CYP11B1 substrate: 11-deoxycortisol (11-deoxycortisol, S4775, selleckchem). The final reaction concentration was 0.2 μM.
Loading: The above compound dilutions were added to the cell plates at 50 μL/well. The background and control wells were set.
Treating and sampling: The cell plates were incubated in a cell incubator for 16 hours after loading, and then each cell plate was centrifuged at 450 g for 2 min. 75 μL supernatant was transferred to a collection plate and frozen at −80° C. for future use (or direct detection).
Detection: Homogeneous time-resolved fluorescence kit (Cisbio HTRF kit, Cat.64ALDPEG, Cat.62CRTPEG) was used to determine the concentration of aldosterone or cortisol in the supernatant.
Analysis: The absolute IC50 (Abs IC50) for each compound was calculated using a four parameter fit.

[3] = target: CYP2C19 (Homo sapiens (Human), UniProt P33261); assay: In vitro inhibitory activity against common CYP450 enzymes: CYP2C19; type: in vitro ADME; conditions: microsomes, substrate (S)-(+)-Mephenytoin
CYP2C19, sequence (P33261 whole entry): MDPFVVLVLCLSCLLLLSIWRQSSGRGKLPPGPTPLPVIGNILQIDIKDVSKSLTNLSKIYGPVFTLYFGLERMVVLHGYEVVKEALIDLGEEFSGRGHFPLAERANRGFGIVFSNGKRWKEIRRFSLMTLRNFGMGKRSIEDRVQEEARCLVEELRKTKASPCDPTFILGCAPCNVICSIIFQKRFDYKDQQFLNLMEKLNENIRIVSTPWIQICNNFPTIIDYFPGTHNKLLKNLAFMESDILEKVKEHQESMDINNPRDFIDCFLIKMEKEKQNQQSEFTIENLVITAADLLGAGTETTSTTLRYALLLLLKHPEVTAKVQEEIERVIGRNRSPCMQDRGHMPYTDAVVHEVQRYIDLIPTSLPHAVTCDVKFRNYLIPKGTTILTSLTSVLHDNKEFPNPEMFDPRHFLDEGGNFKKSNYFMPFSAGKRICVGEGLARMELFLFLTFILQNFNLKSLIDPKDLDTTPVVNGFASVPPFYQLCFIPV
Procedure: A working solution of the test compound was prepared in a solvent of dimethyl sulfoxide (DMSO) (starting at a final concentration of 50 μM, 3-fold dilution of 7 concentration points). The corresponding microsomes (CORNING, Cat No.452117) and the corresponding substrate solution were prepared (components were shown in Table 2). The working solution of the test compound and the corresponding microsomes were mixed with the corresponding substrate solution and the HLM working solution. The mixture was preheated in a 37.0° C. water bath for 10 min. NADPH cofactor (BONTAC, Cat No.BT04) was added. The resultant mixture was incubated for 10 min in a 37.0° C. water bath. The reaction was terminated by adding cold stop solution. [table] [table] The sample was centrifuged at 4000 rpm for 20 min to precipitate protein and the supernatant was transferred to HPLC water and shaken for 10 min.

CCC(=O)N[C@@H]1CCCc2c(-c3ccc4c(c3)CCC(=O)N4C)cncc21 [Baxdrostat, reference compound]
Cortisol Concentration in Plasma ([1]; 0.05 mg/kg oral, 0.5 h): 1136.1 pg/mL | Cortisol Concentration in Plasma ([1]; 0.05 mg/kg oral, 1 h (ACTH at +1 hour)): 1293.5 pg/mL | Cortisol Concentration in Plasma ([1]; 0.05 mg/kg oral, 2 h): 1527.0 pg/mL | Cortisol Concentration in Plasma ([1]; 0.05 mg/kg oral, 4 h): 949.2 pg/mL | Cortisol Concentration in Plasma ([1]; 0.05 mg/kg oral, 6 h): 499.4 pg/mL | Cortisol Concentration in Plasma ([1]; 0.05 mg/kg oral, 12 h): 392.6 pg/mL | Cortisol Concentration in Plasma ([1]; 0.05 mg/kg oral, Pre-dose): 784.2 pg/mL | Cortisol Concentration in Plasma ([1]; 0.5 mg/kg oral, 0.5 h): 1004.1 pg/mL | Cortisol Concentration in Plasma ([1]; 0.5 mg/kg oral, 1 h (ACTH at +1 hour)): 964.8 pg/mL | Cortisol Concentration in Plasma ([1]; 0.5 mg/kg oral, 2 h): 1288.5 pg/mL | Cortisol Concentration in Plasma ([1]; 0.5 mg/kg oral, 4 h): 556.6 pg/mL | Cortisol Concentration in Plasma ([1]; 0.5 mg/kg oral, 6 h): 337.0 pg/mL | Cortisol Concentration in Plasma ([1]; 0.5 mg/kg oral, 12 h): 344.6 pg/mL | Cortisol Concentration in Plasma ([1]; 0.5 mg/kg oral, Pre-dose): 596.4 pg/mL | IC50 [2]: 3.37 µM | IC50 [3]: 6.52 µM
